What was measured:
[1] = system: Mycobacterium tuberculosis Erdman (autoluminescent); assay: AUC25, normalised area under dose response up to IC25 (fraction (0-1)); higher = more potent at low dose
Method: (§1)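 DiaMOND dose responses (10 doses, 1.5- or 2-fold spacing, equipotent around IC90) of autoluminescent M. tuberculosis Erdman in 8 in vitro models. Read-out is OD600, or luminescence for the intracellular (J774) and dormancy models, background-subtracted and normalised to untreated wells. A 3-parameter Hill fit gives Einf and AUC25 (area to IC25 normalised by IC25); GRinf comes from a Hill fit of the Hafner normalised growth rate. Biological replicates passing QC are averaged. Single drugs only.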

[2] = system: Mycobacterium tuberculosis Erdman (autoluminescent); assay: Einf, fitted maximum growth inhibition (fraction); higher = stronger maximal inhibition
Method: as §1

[3] = system: Mycobacterium tuberculosis Erdman (autoluminescent); assay: GRinf, maximum normalised growth rate inhibition (unitless (-1 to 1)); higher = less effect (negative = killing)
Method: as §1

COc1nc2ccc(Br)cc2cc1[C@@H](c1ccccc1)[C@@](O)(CCN(C)C)c1cccc2ccccc12 [bedaquiline]
Conditions	AUC25, [1]	Einf, [2]	GRinf, [3]
in vitro model: acidic pH 5.7, time point: constant (~7 days, model-specific)	0.109	0.921	-0.617
in vitro model: acidic pH 5.7, time point: terminal (~4-5 doublings, model-specific)	0.0902	0.988	-0.475
in vitro model: intracellular J774, time point: constant = terminal	–	0.979	-0.319

Conditions	AUC25, [1]	Einf, [2]	GRinf, [3]
in vitro model: butyrate, time point: constant (~7 days, model-specific)	0.0777	0.964	-0.167
in vitro model: butyrate, time point: terminal (~4-5 doublings, model-specific)	0.0609	0.984	-0.138
in vitro model: cholesterol 0.05 mM, time point: constant (~7 days, model-specific)	0.0895	0.766	-0.328
in vitro model: cholesterol 0.05 mM, time point: terminal (~4-5 doublings, model-specific)	0.0718	0.946	-0.335
in vitro model: cholesterol-high 0.2 mM, time point: constant (~7 days, model-specific)	0.0559	0.975	-0.613
in vitro model: cholesterol-high 0.2 mM, time point: terminal (~4-5 doublings, model-specific)	0.0462	1	-0.647
in vitro model: dormancy (butyrate + nitrate, low O2), time point: constant (~7 days, model-specific)	0.0618	0.908	0.184
in vitro model: dormancy (butyrate + nitrate, low O2), time point: terminal (~4-5 doublings, model-specific)	0.0799	0.979	-0.0503
in vitro model: standard 7H9 glycerol, time point: constant = terminal	0.0758	0.97	-0.118
in vitro model: valerate, time point: constant (~7 days, model-specific)	0.0789	0.92	-0.142
in vitro model: valerate, time point: terminal (~4-5 doublings, model-specific)	0.0549	0.963	-0.0955

CC(C)/N=c1\cc2n(-c3ccc(Cl)cc3)c3ccccc3nc-2cc1Nc1ccc(Cl)cc1 [clofazimine]
Conditions	AUC25, [1]	Einf, [2]	GRinf, [3]
in vitro model: acidic pH 5.7, time point: constant (~7 days, model-specific)	0.0949	0.748	0.0361
in vitro model: acidic pH 5.7, time point: terminal (~4-5 doublings, model-specific)	0.0888	0.966	-0.229
in vitro model: intracellular J774, time point: constant = terminal	–	0.997	-0.696

Conditions	AUC25, [1]	Einf, [2]	GRinf, [3]
in vitro model: butyrate, time point: constant (~7 days, model-specific)	0.0887	0.963	-0.0183
in vitro model: butyrate, time point: terminal (~4-5 doublings, model-specific)	0.0859	0.989	-0.0492
in vitro model: cholesterol 0.05 mM, time point: constant (~7 days, model-specific)	0.129	0.527	0.329
in vitro model: cholesterol 0.05 mM, time point: terminal (~4-5 doublings, model-specific)	0.13	0.844	0.0361
in vitro model: cholesterol-high 0.2 mM, time point: constant (~7 days, model-specific)	0.12	0.938	-0.473
in vitro model: cholesterol-high 0.2 mM, time point: terminal (~4-5 doublings, model-specific)	0.114	1	-0.945
in vitro model: dormancy (butyrate + nitrate, low O2), time point: constant (~7 days, model-specific)	0.115	0.876	0.339
in vitro model: dormancy (butyrate + nitrate, low O2), time point: terminal (~4-5 doublings, model-specific)	0.0838	0.922	-0.0947
in vitro model: standard 7H9 glycerol, time point: constant = terminal	0.113	0.965	-0.0492
in vitro model: valerate, time point: constant (~7 days, model-specific)	0.155	0.88	-0.412
in vitro model: valerate, time point: terminal (~4-5 doublings, model-specific)	0.0638	0.895	0.239

CC[C@@H](CO)NCCN[C@@H](CC)CO [ethambutol]
Conditions	AUC25, [1]	Einf, [2]	GRinf, [3]
in vitro model: acidic pH 5.7, time point: constant (~7 days, model-specific)	0.103	0.785	-0.121
in vitro model: acidic pH 5.7, time point: terminal (~4-5 doublings, model-specific)	0.0746	0.963	-0.204
in vitro model: intracellular J774, time point: constant = terminal	–	0.977	-0.237

Conditions	AUC25, [1]	Einf, [2]	GRinf, [3]
in vitro model: butyrate, time point: constant (~7 days, model-specific)	0.0706	0.86	0.144
in vitro model: butyrate, time point: terminal (~4-5 doublings, model-specific)	0.0701	0.918	0.173
in vitro model: cholesterol 0.05 mM, time point: constant (~7 days, model-specific)	0.0906	0.621	0.0788
in vitro model: cholesterol 0.05 mM, time point: terminal (~4-5 doublings, model-specific)	0.0751	0.907	-0.193
in vitro model: cholesterol-high 0.2 mM, time point: constant (~7 days, model-specific)	0.0267	0.85	-0.161
in vitro model: cholesterol-high 0.2 mM, time point: terminal (~4-5 doublings, model-specific)	0.0346	1	-0.768
in vitro model: dormancy (butyrate + nitrate, low O2), time point: constant (~7 days, model-specific)	0.0829	0.777	0.544
in vitro model: dormancy (butyrate + nitrate, low O2), time point: terminal (~4-5 doublings, model-specific)	0.0685	0.914	0.295
in vitro model: standard 7H9 glycerol, time point: constant = terminal	0.0599	0.852	0.208
in vitro model: valerate, time point: constant (~7 days, model-specific)	0.0683	0.728	0.301
in vitro model: valerate, time point: terminal (~4-5 doublings, model-specific)	0.0665	0.832	0.297

NNC(=O)c1ccncc1 [isoniazid]
Conditions	AUC25, [1]	Einf, [2]	GRinf, [3]
in vitro model: acidic pH 5.7, time point: constant (~7 days, model-specific)	0.0571	0.674	0.0942
in vitro model: acidic pH 5.7, time point: terminal (~4-5 doublings, model-specific)	0.0392	0.933	-0.101
in vitro model: intracellular J774, time point: constant = terminal	–	0.932	-0.113

Conditions	AUC25, [1]	Einf, [2]	GRinf, [3]
in vitro model: butyrate, time point: constant (~7 days, model-specific)	0.0446	0.937	-0.0682
in vitro model: butyrate, time point: terminal (~4-5 doublings, model-specific)	0.0452	0.981	-0.137
in vitro model: cholesterol 0.05 mM, time point: constant (~7 days, model-specific)	0.101	0.738	-0.177
in vitro model: cholesterol 0.05 mM, time point: terminal (~4-5 doublings, model-specific)	0.0895	0.915	-0.208
in vitro model: cholesterol-high 0.2 mM, time point: constant (~7 days, model-specific)	0.0813	0.905	-0.466
in vitro model: cholesterol-high 0.2 mM, time point: terminal (~4-5 doublings, model-specific)	0.0704	0.994	-0.567
in vitro model: dormancy (butyrate + nitrate, low O2), time point: constant (~7 days, model-specific)	0.0691	0.903	0.286
in vitro model: dormancy (butyrate + nitrate, low O2), time point: terminal (~4-5 doublings, model-specific)	0.0601	0.982	-0.0707
in vitro model: standard 7H9 glycerol, time point: constant = terminal	0.0311	0.882	0.145
in vitro model: valerate, time point: constant (~7 days, model-specific)	0.0515	0.881	0.0138
in vitro model: valerate, time point: terminal (~4-5 doublings, model-specific)	0.0365	0.932	0.0316

CC(=O)NC[C@H]1CN(c2ccc(N3CCOCC3)c(F)c2)C(=O)O1 [linezolid]
Conditions	AUC25, [1]	Einf, [2]	GRinf, [3]
in vitro model: acidic pH 5.7, time point: constant (~7 days, model-specific)	0.105	0.813	-0.255
in vitro model: acidic pH 5.7, time point: terminal (~4-5 doublings, model-specific)	0.086	0.966	-0.214
in vitro model: intracellular J774, time point: constant = terminal	–	0.947	-0.297

Conditions	AUC25, [1]	Einf, [2]	GRinf, [3]
in vitro model: butyrate, time point: constant (~7 days, model-specific)	0.0921	0.894	0.0641
in vitro model: butyrate, time point: terminal (~4-5 doublings, model-specific)	0.0673	0.941	0.0625
in vitro model: cholesterol 0.05 mM, time point: constant (~7 days, model-specific)	0.152	0.692	-0.0397
in vitro model: cholesterol 0.05 mM, time point: terminal (~4-5 doublings, model-specific)	0.152	0.927	-0.195
in vitro model: cholesterol-high 0.2 mM, time point: constant (~7 days, model-specific)	0.119	0.967	-0.633
in vitro model: cholesterol-high 0.2 mM, time point: terminal (~4-5 doublings, model-specific)	0.117	1	-0.803
in vitro model: dormancy (butyrate + nitrate, low O2), time point: constant (~7 days, model-specific)	0.0427	0.907	0.164
in vitro model: dormancy (butyrate + nitrate, low O2), time point: terminal (~4-5 doublings, model-specific)	0.0425	0.989	-0.0469
in vitro model: standard 7H9 glycerol, time point: constant = terminal	0.0679	0.904	0.0704
in vitro model: valerate, time point: constant (~7 days, model-specific)	0.106	0.912	-0.0706
in vitro model: valerate, time point: terminal (~4-5 doublings, model-specific)	0.0701	0.948	-0.0311

COc1c(N2C[C@@H]3CCCN[C@@H]3C2)c(F)cc2c(=O)c(C(=O)O)cn(C3CC3)c12 [moxifloxacin]
Conditions	AUC25, [1]	Einf, [2]	GRinf, [3]
in vitro model: acidic pH 5.7, time point: constant (~7 days, model-specific)	0.122	0.749	-0.192
in vitro model: acidic pH 5.7, time point: terminal (~4-5 doublings, model-specific)	0.0782	0.96	-0.226
in vitro model: intracellular J774, time point: constant = terminal	–	0.957	-0.212

Conditions	AUC25, [1]	Einf, [2]	GRinf, [3]
in vitro model: butyrate, time point: constant (~7 days, model-specific)	0.0832	0.908	0.0408
in vitro model: butyrate, time point: terminal (~4-5 doublings, model-specific)	0.0522	0.957	0.0197
in vitro model: cholesterol 0.05 mM, time point: constant (~7 days, model-specific)	0.116	0.629	-0.0568
in vitro model: cholesterol 0.05 mM, time point: terminal (~4-5 doublings, model-specific)	0.0909	0.881	-0.0841
in vitro model: cholesterol-high 0.2 mM, time point: constant (~7 days, model-specific)	0.0781	0.824	-0.195
in vitro model: cholesterol-high 0.2 mM, time point: terminal (~4-5 doublings, model-specific)	0.0751	1	-0.609
in vitro model: dormancy (butyrate + nitrate, low O2), time point: constant (~7 days, model-specific)	0.0904	0.927	0.0805
in vitro model: dormancy (butyrate + nitrate, low O2), time point: terminal (~4-5 doublings, model-specific)	0.0579	0.974	-0.132
in vitro model: standard 7H9 glycerol, time point: constant = terminal	0.0856	0.913	0.00369
in vitro model: valerate, time point: constant (~7 days, model-specific)	0.105	0.878	-0.00227
in vitro model: valerate, time point: terminal (~4-5 doublings, model-specific)	0.0529	0.936	0.0339
